Results published in patent publication US20080153850A1, “Adamantyl Derivates as P2x7 Receptor Antagonists” (AstraZeneca AB, priority 2004, published 2008).

Compound | melting point
O=C(O)COc1cccc(-c2ccc(Cl)c(C(=O)NCC34CC5CC(CC(C5)C3)C4)c2)c1 [Example 38, [[4′-Chloro-3′-[[(tricyclo[3.3.1.1^3,7]dec-1-ylmethyl)amino]carbonyl][1,1′-biphenyl]-3-yl]oxy]-acetic acid] | 99 to 101 °C
C[C@@H](Oc1ccccc1-c1ccc(Cl)c(C(=O)NCC23CC4CC(CC(C4)C2)C3)c1)C(=O)O [Example 39, (2R)-2-[[4′-Chloro-3′-[[(tricyclo[3.3.1.1^3,7]dec-1-ylmethyl)amino]carbonyl][1,1′-biphenyl]-2-yl]oxy]-propanoic acid] | 133 to 137 °C
O=C(O)COc1ccc(-c2ccc(Cl)c(C(=O)NCC34CC5CC(CC(C5)C3)C4)c2)cc1 [Example 40, [[4′-Chloro-3′-[[(tricyclo[3.3.1.1^3,7]dec-1-ylmethyl)amino]carbonyl][1,1′-biphenyl]-4-yl]oxy]-acetic acid] | 136 to 140 °C
C[C@H](Oc1cccc(-c2ccc(Cl)c(C(=O)NCC34CC5CC(CC(C5)C3)C4)c2)c1)C(=O)O [Example 41, (2S)-2-[[4′-Chloro-3′-[[(tricyclo[3.3.1.1^3,7]dec-1-ylmethyl)amino]carbonyl][1,1′-biphenyl]-3-yl]oxy]-propanoic acid] | 115 to 120 °C
O=C(NCC12CC3CC(CC(C3)C1)C2)c1cc(-c2ccc(Cl)cc2C(=O)O)ccc1Cl [Example 42, 4,4′-Dichloro-3′-[[(tricyclo[3.3.1.1^3,7]dec-1-ylmethyl)amino]carbonyl]-[1,1′-biphenyl]-2-carboxylic acid] | 207 to 210 °C
C[C@H](Oc1ccc(-c2ccc(Cl)c(C(=O)NCC34CC5CC(CC(C5)C3)C4)c2)cc1)C(=O)O [Example 43, (2S)-2-[[4′-Chloro-3′-[[(tricyclo[3.3.1.1^3,7]dec-1-ylmethyl)amino]carbonyl][1,1′-biphenyl]-4-yl]oxy]-propanoic acid] | 145 to 150 °C
O=C(NCC12CC3CC(CC(C3)C1)C2)c1cc(-c2ccc(Cl)c(C(=O)O)n2)ccc1Cl [Example 44, 3-Chloro-6-[4-chloro-3-[[(tricyclo[3.3.1.1^3,7]dec-1-ylmethyl)amino]carbonyl]phenyl]-2-pyridinecarboxylic acid] | 154 to 159 °C
O=C(NCC12CC3CC(CC(C3)C1)C2)c1cc(-c2cc(F)c(F)cc2C(=O)O)ccc1Cl [Example 48, 4′-Chloro-4,5-difluoro-3′-[[(tricyclo[3.3.1.1^3,7]dec-1-ylmethyl)amino]carbonyl]-[1,1′-biphenyl]-2-carboxylic acid] | 121 to 125 °C
O=C(NCCC12CC3CC(CC(C3)C1)C2)c1cc(-c2ccccc2C(=O)O)ccc1Cl [Example 49, 4′-Chloro-3′-[[(2-tricyclo[3.3.1.1^3,7]dec-1-ylethyl)amino]carbonyl]-[1,1′-biphenyl]-2-carboxylic acid] | 114 to 117 °C
O=C(NCC12CC3CC(CC(C3)C1)C2)c1cc(-c2ccccc2C(=O)O)ncc1Cl [Example 52, 2-[5-Chloro-4-[[(tricyclo[3.3.1.1^3,7]dec-1-ylmethyl)amino]carbonyl]-2-pyridinyl]-benzoic acid] | 134 to 138 °C
CN(CCO)c1nc(-c2ccc(Cl)c(C(=O)NCC34CC5CC(CC(C5)C3)C4)c2)ccc1C(=O)O [Example 54, 6-[4-Chloro-3-[[(tricyclo[3.3.1.1^3,7]dec-1-ylmethyl)amino]carbonyl]phenyl]-2-[(2-hydroxyethyl)methylamino]-3-pyridinecarboxylic acid] | 121 to 124 °C
Cc1nn(C)c(C(=O)O)c1-c1ccc(Cl)c(C(=O)NCC23CC4CC(CC(C4)C2)C3)c1 [Example 56, 4-[4-Chloro-3-[[(tricyclo[3.3.1.1^3,7]dec-1-ylmethyl)amino]carbonyl]phenyl]-1,3-dimethyl-1H-pyrazole-5-carboxylic acid] | 207 °C
Cc1ccc(-c2ccccc2C(=O)O)cc1C(=O)NCC12CC3CC(CC(C3)C1)C2 [Example 67, 4′-Methyl-3′-[[(tricyclo[3.3.1.1^3,7]dec-1-ylmethyl)amino]carbonyl]-[1,1′-biphenyl]-2-carboxylic acid] | 85 to 92 °C
Cc1ccc(-c2cccc(C(=O)O)n2)cc1C(=O)NCC12CC3CC(CC(C3)C1)C2 [Example 69, 6-[4-Methyl-3-[[(tricyclo[3.3.1.1^3,7]dec-1-ylmethyl)amino]carbonyl]phenyl]-2-pyridinecarboxylic acid] | 227 °C
Cc1ccc(-c2ccc(Cl)c(C(=O)NCC34CC5CC(CC(C5)C3)C4)c2)nc1C(=O)O [Example 71, 6-[4-Chloro-3-[[(tricyclo[3.3.1.1^3,7]dec-1-ylmethyl)amino]carbonyl]phenyl]-3-methyl-2-pyridinecarboxylic acid] | 180 to 185 °C

The remaining lines, values ahead:

melting point | Compound
200 to 202 °C | O=C(O)Cc1ccccc1-c1ccc(Cl)c(C(=O)NCC23CC4CC(CC(C4)C2)C3)c1 [Example 37, 4′-Chloro-3′-[[(tricyclo[3.3.1.1^3,7]dec-1-ylmethyl)amino]carbonyl]-[1,1′-biphenyl]-2-acetic acid]
133 to 137 °C | O=C(O)COc1cccnc1-c1ccc(Cl)c(C(=O)NCC23CC4CC(CC(C4)C2)C3)c1 [Example 46, [[2-[4-Chloro-3-[[(tricyclo[3.3.1.1^3,7]dec-1-ylmethyl)amino]carbonyl]phenyl]-3-pyridinyl]oxy]-acetic acid]
190 to 194 °C | O=C(O)CNc1cccnc1-c1ccc(Cl)c(C(=O)NCC23CC4CC(CC(C4)C2)C3)c1 [Example 47, N-[2-[4-Chloro-3-[[(tricyclo[3.3.1.1^3,7]dec-1-ylmethyl)amino]carbonyl]phenyl]-3-pyridinyl]-glycine]
108 to 111 °C | O=C(NCCC12CC3CC(CC(C3)C1)C2)c1cc(-c2cccnc2C(=O)O)ccc1Cl [Example 50, 3-[4-Chloro-3-[[(2-tricyclo[3.3.1.1^3,7]dec-1-ylethyl)amino]carbonyl]phenyl]-2-pyridinecarboxylic acid]
126 to 128 °C | O=C(NCC12CC3CC(CC(C3)C1)C2)c1cc(-c2ccc(F)cc2C(=O)O)ccc1Cl [Example 51, 4′-Chloro-4-fluoro-3′-[[(tricyclo[3.3.1.1^3,7]dec-1-ylmethyl)amino]carbonyl]-[1,1′-biphenyl]-2-carboxylic acid]
177 to 180 °C | Cc1ccnc(-c2ccc(Cl)c(C(=O)NCC34CC5CC(CC(C5)C3)C4)c2)c1C(=O)O [Example 53, 2-[4-Chloro-3-[[(tricyclo[3.3.1.1^3,7]dec-1-ylmethyl)amino]carbonyl]phenyl]-4-methyl-3-pyridinecarboxylic acid]
181 to 183 °C | Cc1ccc(-c2cccnc2C(=O)O)cc1C(=O)NCC12CC3CC(CC(C3)C1)C2 [Example 55, 3-[4-Methyl-3-[[(tricyclo[3.3.1.1^3,7]dec-1-ylmethyl)amino]carbonyl]phenyl]-2-pyridinecarboxylic acid]
110 to 115 °C | O=C(NCC12CC3CC(CC(C3)C1)C2)c1cc(-c2cccnc2N2CCC(C(=O)O)CC2)ccc1Cl [Example 59, 1-[3-[4-Chloro-3-[[(tricyclo[3.3.1.1^3,7]dec-1-ylmethyl)amino]carbonyl]phenyl]-2-pyridinyl]-4-piperidinecarboxylic acid]
121 to 125 °C | O=C(NCC12CC3CC(CC(C3)C1)C2)c1cc(-c2cccnc2N2CCC[C@H]2C(=O)O)ccc1Cl [Example 60, 1-[3-[4-Chloro-3-[[(tricyclo[3.3.1.1^3,7]dec-1-ylmethyl)amino]carbonyl]phenyl]-2-pyridinyl]-L-proline]
125 to 130 °C | O=C(NCC12CC3CC(CC(C3)C1)C2)c1cc(-c2cccnc2N2CCCC(C(=O)O)C2)ccc1Cl (centres unmarked) [Example 61, 1-[3-[4-Chloro-3-[[(tricyclo[3.3.1.1^3,7]dec-1-ylmethyl)amino]carbonyl]phenyl]-2-pyridinyl]-3-piperidinecarboxylic acid]
145 to 150 °C | O=C(NCC12CC3CC(CC(C3)C1)C2)c1cc(-c2cccnc2N2CC(C(=O)O)C2)ccc1Cl [Example 62, 1-[3-[4-Chloro-3-[[(tricyclo[3.3.1.1^3,7]dec-1-ylmethyl)amino]carbonyl]phenyl]-2-pyridinyl]-3-azetidinecarboxylic acid]
125 to 130 °C | Cc1ccc(-c2ccc(Cl)c(C(=O)NCC34CC5CC(CC(C5)C3)C4)c2)c(C(=O)O)n1 [Example 63, 3-[4-Chloro-3-[[(tricyclo[3.3.1.1^3,7]dec-1-ylmethyl)amino]carbonyl]phenyl]-6-methyl-2-pyridinecarboxylic acid]
125 to 130 °C | Cc1cnc(C(=O)O)c(-c2ccc(Cl)c(C(=O)NCC34CC5CC(CC(C5)C3)C4)c2)c1 [Example 64, 3-[4-Chloro-3-[[(tricyclo[3.3.1.1^3,7]dec-1-ylmethyl)amino]carbonyl]phenyl]-5-methyl-2-pyridinecarboxylic acid]
145 to 150 °C | O=C(NCC12CC3CC(CC(C3)C1)C2)c1cc(-c2cccnc2N2CCC(O)(C(=O)O)CC2)ccc1Cl [Example 65, 1-[3-[4-Chloro-3-[[(tricyclo[3.3.1.1^3,7]dec-1-ylmethyl)amino]carbonyl]phenyl]-2-pyridinyl]-4-hydroxy-4-piperidinecarboxylic acid]
130 to 135 °C | O=C(NCC12CC3CC(CC(C3)C1)C2)c1cc(-c2cc(F)cnc2N2CCC(C(=O)O)CC2)ccc1Cl [Example 66, 1-[3-[4-Chloro-3-[[(tricyclo[3.3.1.1^3,7]dec-1-ylmethyl)amino]carbonyl]phenyl]-5-fluoro-2-pyridinyl]-4-piperidinecarboxylic acid]
60 °C | Cc1ccc(-c2cccnc2N2CCC(C(=O)O)CC2)cc1C(=O)NCC12CC3CC(CC(C3)C1)C2 [Example 68, 1-[3-[4-Methyl-3-[[(tricyclo[3.3.1.1^3,7]dec-1-ylmethyl)amino]carbonyl]phenyl]-2-pyridinyl]-4-piperidinecarboxylic acid]
104 to 107 °C | O=C(NCC12CC3CC(CC(C3)C1)C2)c1cc(-c2ccncc2C(=O)O)ccc1Cl [Example 70, 4-[4-Chloro-3-[[(tricyclo[3.3.1.1^3,7]dec-1-ylmethyl)amino]carbonyl]phenyl]-3-pyridinecarboxylic acid]
